In patent US10633409B2, “Bola-amphiphilic compounds and their uses for biomedical applications” (UNIVERSITE DE BORDEAUX, priority 2014, dated 2020):

How the values were obtained:
[1] = Gelation test (tube inversion); assay type: physicochemical; settings: aqueous dispersion 1.5 wt % in Milli-Q water, heated until dissolution (45° C.), cooled to room temperature
Procedure: The aqueous dispersions (Milli-Q water, 18 MΩ·cm^−1) containing 1.5 wt % of compounds 5 and 6 obtained in examples 1 and 2 were heated until dissolution (at 45° C.) and gradually allowed to cool to room temperature unless otherwise stated.

hASCs or D1 = experiment: Live/Dead staining (calcein-AM, ethidium homodimer) of cells seeded within gels; assay type: cell-based; settings: cells seeded within gel 3% (w/v), at 2 weeks
Procedure: For all in vitro assays, the hydrogel obtained from compound 6 was prepared at a concentration of 3% (w/v). The compound 6 powder was solubilized in PBS 1× under agitation (900 rpm) at 25° C. during 45 minutes. Then, when the gel was formed, it was left at room temperature, without agitation, during 3 to 4 hours. To allow cell seeding, the gel was heated during 30 minutes at 55° C. Once the liquid solution was obtained, it was rapidly cooled down to 37° C. and thoroughly mixed with 10 μL cell suspension at a concentration of 1 million cells per mL of gel. Finally, the cellularized hydrogel was maintained under agitation (600 rpm), at 25° C. during 45 minutes. After this period, medium was been added (250 μL/tube) and tubes were incubated at controlled atmosphere (5% CO2, 37° C.)
[…] Cells seeded within gels were incubated for 1 h at 37° C. in Hank's medium supplemented with 1.25 μL calcein-AM and 5 μL EthD-1.

[2] = tested on: rat osteoblastic cells (A) or human ASCs (B); experiment: Cytocompatibility by Alamar Blue metabolism in cells grown in compound 6-based gels; assay type: cell-based; settings: compound 6-based gel 3% (w/v)
Procedure: (§1) Mesenchymal stem cells were isolated from human adipose tissue. Human subcutaneous fat was obtained from healthy patients aged 20 to 80 years old who underwent hip surgery in Bordeaux Pellegrin CHU (Bordeaux, France). Fat mass was separated from other tissues, washed with sterilized PBS, finely cut and incubated with 0.1% (w/v) collagenase type I (Worthington, Lakewood, N.J., USA) at 37° C. with gentle agitation for 1 h 30. After filtration and centrifugation, the top liquid layer was removed and the remaining Stromal Vascular Fraction (SVF) was treated for 10 min with ELB (Erythocyte Lysis Buffer; 155 mM NH4Cl (Sigma-Aldrich, St. Louis, Mo., USA), 5.7 mM K2HPO4, 7.4 mM K2HPO4-3H2O, 0.1 mm EDTA (all Sigma-Aldrich)), and then centrifuged. […]
Cell viability was also evaluated by using the Alamar Blue metabolic activity assay. […] After this time, the fluorescence was measured at wavelengths excitation 530 nm and emission 590 nm. Triplicate samples were analyzed for each experiment. […]
Cytocompatibility was determined by monitoring alamar blue metabolism in rat osteoblastic cells (A) or human ASCs (B) grown in compound 6-based gels. […]

[3] = tested on: human mesenchymal stem cells (ASCs); experiment: Cytotoxicity by MTT test (cell metabolic activity); assay type: cell-based
Procedure: as §1
The cytotoxicity of compound 6 was evaluated by the measurement of the cell metabolic activity (MTT assay). […]
MTT assay was performed after 72 h of incubation. […] Results were expressed as a percentage of the metabolic activity of the positive control. Absorbance was measured at a wavelength of 570 nm with background subtraction at 630 nm.
The cytotoxicity of compound 6 was determined by MTT test to measure the metabolic activity of human mesenchymal stem cells (ASCs) 48 hours after incubation with increasing concentrations of compound 6. […]

[4] = Sol-gel transition temperature (Tgel) by rheology; assay type: physicochemical; settings: hydrogel 3% w/v, heated from 25 to 60° C. (3° C./min), oscillatory stress 5 Pa, 1 Hz
Procedure: The determination of gel-sol transition temperature can also be determinated by rheology. The hydrogel (3% product 6 of example 2, w/v) was heated progressively from 25 to 60° C. (3° C./min). The oscillatory stress applied was set to 5 Pa at a constant frequency (1 Hz). The sol-gel transition point was taken as the temperature at which the gel became liquid. This melting temperature is reached at the intersection of the viscoelastic moduli (G′ and G″). This value is of 46° C. which is compatible with the cell culture at the gel state (37° C.).

Cc1cn([C@H]2C[C@H](O)[C@@H](Cn3cc(COCCCCCCCCCCCCO)nn3)O2)c(=O)n(Cc2cn([C@@H]3O[C@H](CO)[C@@H](O)[C@H](O)[C@H]3O)nn2)c1=O [compound 5, 5′-[4-(12-hydroxydodecanyloxy)methyl)-1H-1,2,3-triazol-1-yl]-5′-deoxy-N3-(1-((β-D-glucopyranoside)-1H-1,2,3-triazol-4-yl)methyl thymidine]
gel formation (solid aggregate mass stable to inversion of the container) [1]: form gels

Cc1cn([C@H]2C[C@H](O)[C@@H](Cn3cc(COCCCCCCCCCCCCOCc4cn(C[C@H]5O[C@@H](n6cc(C)c(=O)n(Cc7cn([C@@H]8O[C@H](CO)[C@@H](O)[C@H](O)[C@H]8O)nn7)c6=O)C[C@@H]5O)nn4)nn3)O2)c(=O)n(Cc2cn([C@@H]3O[C@H](CO)[C@@H](O)[C@H](O)[C@H]3O)nn2)c1=O [compound 6]
Live/dead staining result (hASCs or D1): vast majority of green (living) cells | gel formation (solid aggregate mass stable to inversion of the container) [1]: form gels | cytocompatibility when used as cell culture medium [2]: god cytocompatibility | concentrations up to which the compound is non toxic ([3]; MTT, human ASCs, tested 5 μM to 5 mM, value printed as approximate): ≤ 1000 µM | cytotoxicity (result in words) ([3]; summary of example 12): not cytotoxic | sol-gel transition temperature (Tgel), intersection of G′ and G″ [4]: 46 °C
